According to publication PMC6300130 (Journal of medicinal chemistry, 2018):
“And” between values parts separate entries of the source, which are not always exact repeats. Identical values can stand only once. Like-named read-outs stand apart in the source and are kept apart here.

Columns and labels:
[1] = test system: P. falciparum had1 mutant strain; conditions: cited from earlier work
P. falciparum strain 3D7 [2] = conditions: cited from earlier work
HepG2 cells = experiment: HepG2 cytotoxicity; format: cell-based, human; conditions: HepG2 IC50/P. falciparum IC50
P. falciparum strain 3D7 [3] = experiment: IPP rescue of inhibitor-treated P. falciparum; format: cell-based, Plasmodium falciparum; conditions: 125 μM IPP, 72 h
[4] = test system: P. falciparum had1 mutant strain; experiment: Growth inhibition of had1 mutant P. falciparum; format: cell-based, Plasmodium falciparum; conditions: for sensitivity in had1 + HAD1-GFP strain: mutant supplied with wild-type copy of HAD1
[5] = test system: MEP pathway metabolites in P. falciparum 3D7 parasites; experiment: MEP pathway metabolite profiling by LC-MS/MS; format: cell-based, Plasmodium falciparum; conditions: 5× the IC50 value, 10 h
[6] = Tolerability in mice during efficacy study; format: in vivo, mouse; conditions: 20 and 50 mg/kg ip daily for 5 days
[7] = test system: Mycobacterium tuberculosis (Mtb) DXR; conditions: cited from earlier work
Mtb = conditions: cited from earlier work
[8] = cited from earlier work

O=CN(O)CCCP(=O)([O-])O.[Na+] [1a, Fosmidomycin]
resistance of had1 parasites [1]: resistant | rescue of growth by exogenous IPP (P. falciparum strain 3D7 [2]): restoration effect

O=CN(O)C/C=C/P(=O)([O-])O.[Na+] [12a, Sodium Hydrogen [(1E)-3-(N-Hydroxyformamido)prop-1-en-1-yl]phosphonate]
SI^Pf selectivity index (HepG2 cells): > 2632 | rescue of growth by exogenous IPP (P. falciparum strain 3D7 [3]): effectively rescues growth | sensitivity in had1 + HAD1-GFP strain [4]: restored

CC(=O)N(C/C=C/P(=O)([O-])O)OCc1ccc(C(C)C)cc1.[Na+] [16e]
rescue of growth by exogenous IPP (P. falciparum strain 3D7 [3]): restored by IPP supplementation | resistance of had1 parasites compared with wild-type ([4]; words): more resistant

CC(C)(C)C(=O)OCOP(=O)(/C=C/CN(O)C=O)OCOC(=O)C(C)(C)C [18a, [({[(2,2-Dimethylpropanoyl)oxy]methoxy}[(1E)-3-(N-hydroxyformamido)prop-1-en-1-yl]phosphoryl)oxy]methyl 2,2-Dimethylpropanoate]
DOXP level, treated vs untreated parasites [5]: did not show significant difference | rescue of growth by exogenous IPP (P. falciparum strain 3D7 [3]): effectively rescues growth | tolerability in mice [6]: no adverse effects were observed | sensitivity in had1 + HAD1-GFP strain [4]: restored

CC(=O)N(O)C/C=C/P(=O)([O-])O.[Na+] [compound 2]
increase in potency against Mtb DXR compared with FR900098 [7]: 2 fold | IC50 ([7]; read-out: Mtb DXR IC50): 1070 nM

CC(=O)N(O)C/C=C/P(=O)(OCOC(=O)C(C)(C)C)OCOC(=O)C(C)(C)C [compound 3]
Mtb MIC99 (Mtb): 9.4 μg/mL and 22 μM | in vivo antimalarial activity [8]: potent in vivo antimalarial activity

CC(=O)N(CCCP(=O)(OCOC(=O)C(C)(C)C)OCOC(=O)C(C)(C)C)OCc1ccc2ccccc2c1 [compound 5]
Mtb MIC99 (Mtb): 18.75 μg/mL and 33.2 μM
